Source: the supplement of paper PMC6045584
± gives the standard deviation of the averaged measurements.

Columns and labels:
XAV-939 = compound: Oc1nc(-c2ccc(C(F)(F)F)cc2)nc2c1CSCC2 [XAV-939]; test: surviving fraction relative to DMSO-only wells; higher = less growth inhibition; details: exposure time: 5 days
In short: (§1)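 Each tumour cell line was screened three times, and only lines with replicate Pearson r >0.7 and median Z' >0.3 were kept. Cells in log phase were seeded at 250–500 per well in 384-well plates, left 24 hours, then exposed continuously for five days to inhibitors at 0.5, 1, 5, 10, 50, 100, 500 and 1000 nM. Viability was read as CellTiter-Glo luminescence, with surviving fraction normalised to the median of DMSO-only wells.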

[1] = compound: COc1cc2ncnc(Nc3ccc(F)c(Cl)c3)c2cc1NC(=O)/C=C/CN1CCCCC1; test: as above; details: exposure time: 5 days
In short: as §1

## SYO1 SYNOVIAL
XAV-939; 0.5 nM
  surviving fraction: 0.954 ± 0.039
XAV-939; 1 nM
  surviving fraction: 0.998 ± 0.062
XAV-939; 5 nM
  surviving fraction: 0.984 ± 0.028
XAV-939; 10 nM
  surviving fraction: 0.997 ± 0.047
XAV-939; 50 nM
  surviving fraction: 0.973 ± 0.059
XAV-939; 100 nM
  surviving fraction: 0.879 ± 0.024
XAV-939; 500 nM
  surviving fraction: 0.708 ± 0.044
XAV-939; 1000 nM
  surviving fraction: 0.568 ± 0.0066
[1]; 0.5 nM
  surviving fraction: 0.9794 ± 0.0088
[1]; 1 nM
  surviving fraction: 0.993 ± 0.068
[1]; 5 nM
  surviving fraction: 0.91 ± 0.023
[1]; 10 nM
  surviving fraction: 0.929 ± 0.048
[1]; 50 nM
  surviving fraction: 0.971 ± 0.055
[1]; 100 nM
  surviving fraction: 0.974 ± 0.039
[1]; 500 nM
  surviving fraction: 0.784 ± 0.018
[1]; 1000 nM
  surviving fraction: 0.422 ± 0.022

## T47D BREAST
XAV-939; 0.5 nM
  surviving fraction: 1.04 ± 0.074
XAV-939; 1 nM
  surviving fraction: 1.08 ± 0.045
XAV-939; 5 nM
  surviving fraction: 1.07 ± 0.02
XAV-939; 10 nM
  surviving fraction: 1.09 ± 0.014
XAV-939; 50 nM
  surviving fraction: 1.09 ± 0.044
XAV-939; 100 nM
  surviving fraction: 1.13 ± 0.053
XAV-939; 500 nM
  surviving fraction: 1.04 ± 0.052
XAV-939; 1000 nM
  surviving fraction: 1.05 ± 0.042
[1]; 0.5 nM
  surviving fraction: 1.03 ± 0.044
[1]; 1 nM
  surviving fraction: 1.11 ± 0.045
[1]; 5 nM
  surviving fraction: 1.07 ± 0.041
[1]; 10 nM
  surviving fraction: 1.04 ± 0.027
[1]; 50 nM
  surviving fraction: 1.043 ± 0.0096
[1]; 100 nM
  surviving fraction: 1.07 ± 0.034
[1]; 500 nM
  surviving fraction: 1.05 ± 0.05
[1]; 1000 nM
  surviving fraction: 1.02 ± 0.046

## U2OS BONE
XAV-939; 0.5 nM
  surviving fraction: 1.02 ± 0.028
XAV-939; 1 nM
  surviving fraction: 1.04 ± 0.012
XAV-939; 5 nM
  surviving fraction: 1.07 ± 0.032
XAV-939; 10 nM
  surviving fraction: 1.06 ± 0.038
XAV-939; 50 nM
  surviving fraction: 1.06 ± 0.014
XAV-939; 100 nM
  surviving fraction: 1.04 ± 0.018
XAV-939; 500 nM
  surviving fraction: 0.921 ± 0.02
XAV-939; 1000 nM
  surviving fraction: 0.8627 ± 0.0081
[1]; 0.5 nM
  surviving fraction: 1.03 ± 0.023
[1]; 1 nM
  surviving fraction: 1.03 ± 0.025
[1]; 5 nM
  surviving fraction: 1.02 ± 0.025
[1]; 10 nM
  surviving fraction: 1.01 ± 0.038
[1]; 50 nM
  surviving fraction: 1.04 ± 0.015
[1]; 100 nM
  surviving fraction: 1.06 ± 0.027
[1]; 500 nM
  surviving fraction: 0.906 ± 0.033
[1]; 1000 nM
  surviving fraction: 0.798 ± 0.034

## VCAP PROSTATE
XAV-939; 0.5 nM
  surviving fraction: 0.963 ± 0.12
XAV-939; 1 nM
  surviving fraction: 0.958 ± 0.077
XAV-939; 5 nM
  surviving fraction: 1.08 ± 0.092
XAV-939; 10 nM
  surviving fraction: 0.973 ± 0.089
XAV-939; 50 nM
  surviving fraction: 0.957 ± 0.083
XAV-939; 100 nM
  surviving fraction: 0.903 ± 0.088
XAV-939; 500 nM
  surviving fraction: 0.848 ± 0.13
XAV-939; 1000 nM
  surviving fraction: 0.84 ± 0.024
[1]; 0.5 nM
  surviving fraction: 0.95 ± 0.04
[1]; 1 nM
  surviving fraction: 0.769 ± 0.036
[1]; 5 nM
  surviving fraction: 0.967 ± 0.08
[1]; 10 nM
  surviving fraction: 1.04 ± 0.12
[1]; 50 nM
  surviving fraction: 1.04 ± 0.048
[1]; 100 nM
  surviving fraction: 0.996 ± 0.14
[1]; 500 nM
  surviving fraction: 0.725 ± 0.078
[1]; 1000 nM
  surviving fraction: 0.406 ± 0.025

## VP229 BREAST
XAV-939; 0.5 nM
  surviving fraction: 1.3 ± 0.093
XAV-939; 1 nM
  surviving fraction: 1.34 ± 0.056
XAV-939; 5 nM
  surviving fraction: 1.37 ± 0.14
XAV-939; 10 nM
  surviving fraction: 1.23 ± 0.045
XAV-939; 50 nM
  surviving fraction: 1.3 ± 0.075
XAV-939; 100 nM
  surviving fraction: 1.41 ± 0.22
XAV-939; 500 nM
  surviving fraction: 1.33 ± 0.26
XAV-939; 1000 nM
  surviving fraction: 1.3 ± 0.075
[1]; 0.5 nM
  surviving fraction: 1.02 ± 0.1
[1]; 1 nM
  surviving fraction: 1.18 ± 0.056
[1]; 5 nM
  surviving fraction: 0.663 ± 0.12
[1]; 10 nM
  surviving fraction: 0.638 ± 0.086
[1]; 50 nM
  surviving fraction: 0.306 ± 0.011
[1]; 100 nM
  surviving fraction: 0.287 ± 0.026
[1]; 500 nM
  surviving fraction: 0.2307 ± 0.00058
[1]; 1000 nM
  surviving fraction: 0.191 ± 0.029

## YAMATO SYNOVIAL
XAV-939; 0.5 nM
  surviving fraction: 1.28 ± 0.22
XAV-939; 1 nM
  surviving fraction: 1.22 ± 0.057
XAV-939; 5 nM
  surviving fraction: 1.26 ± 0.095
XAV-939; 10 nM
  surviving fraction: 1.34 ± 0.18
XAV-939; 50 nM
  surviving fraction: 1.3 ± 0.049
XAV-939; 100 nM
  surviving fraction: 1.24 ± 0.053
XAV-939; 500 nM
  surviving fraction: 1 ± 0.095
XAV-939; 1000 nM
  surviving fraction: 1.09 ± 0.037
[1]; 0.5 nM
  surviving fraction: 1.23 ± 0.053
[1]; 1 nM
  surviving fraction: 1.29 ± 0.18
[1]; 5 nM
  surviving fraction: 1.3 ± 0.02
[1]; 10 nM
  surviving fraction: 1.45 ± 0.17
[1]; 50 nM
  surviving fraction: 1.31 ± 0.095
[1]; 100 nM
  surviving fraction: 1.39 ± 0.068
[1]; 500 nM
  surviving fraction: 1.31 ± 0.16
[1]; 1000 nM
  surviving fraction: 1.27 ± 0.077

## ZR751 BREAST
XAV-939; 0.5 nM
  surviving fraction: 0.873 ± 0.048
XAV-939; 1 nM
  surviving fraction: 0.925 ± 0.18
XAV-939; 5 nM
  surviving fraction: 0.869 ± 0.092
XAV-939; 10 nM
  surviving fraction: 0.987 ± 0.03
XAV-939; 50 nM
  surviving fraction: 0.683 ± 0.082
XAV-939; 100 nM
  surviving fraction: 0.762 ± 0.15
XAV-939; 500 nM
  surviving fraction: 0.69 ± 0.052
XAV-939; 1000 nM
  surviving fraction: 0.685 ± 0.036
[1]; 0.5 nM
  surviving fraction: 1.07 ± 0.11
[1]; 1 nM
  surviving fraction: 0.919 ± 0.043
[1]; 5 nM
  surviving fraction: 0.791 ± 0.018
[1]; 10 nM
  surviving fraction: 0.859 ± 0.076
[1]; 50 nM
  surviving fraction: 0.762 ± 0.095
[1]; 100 nM
  surviving fraction: 0.768 ± 0.04
[1]; 500 nM
  surviving fraction: 0.625 ± 0.056
[1]; 1000 nM
  surviving fraction: 0.415 ± 0.087
